Laboratory results as given in patent EP3744729B1, “PEPTIDES, COMPOSITIONS COMPRISING THEM AND COSMETIC AND DERMOPHARMACEUTICAL USES” (SEDERMA, priority 2009, dated 2023).
Where a SMILES comes first, the peptide text is derived from it. [ ]: non-standard residue; d: D form. The star is where a group is joined. Met(O2) = CS(=O)(=O)CC[C@H](N)C(=O)O; Palmitoyl = CCCCCCCCCCCCCCCC(=O)*; Ava = NCCCCC(=O)O

What was measured:
dermal NHF = experiment: Immunostaining method on dermal NHF: collagen I (Table 7, Test 2); assay type: cell-based, human; conditions: % difference compared to the control
From the text: Table 7 showing % differences in collagen I in the dermis compared to the control for dioxygenated peptide compounds according to the immunostaining method or to ELISA test on dermal NHF

[1] = system: normal human dermal fibroblasts (NHF); experiment: ELISA test on normal human dermal fibroblasts (NHF): macromolecules in culture supernatant; assay type: cell-based; conditions: Table 7, % difference compared to the control
Protocol: > ELISA test on normal human dermal fibroblasts (NHF)
This test examines the dermal molecules.
Normal human dermal fibroblasts are cultured in multi-well plates. The cells either are or are not placed in contact with the test substances for 3 days. The culture supernatants are removed and the quantity of macromolecules present (collagen I, fibronectin, collagen IV and hyaluronic acid) is assayed by ELISA.

Structure (SMILES): CCCCCCCCCCCCCCCC(=O)NCCCCC(=O)N[C@@H](CCS(C)(=O)=O)C(N)=O [Pal-Ava-MO2-NH2]
- Collagen I in the dermis Test 2 (dermal NHF; 2 ppm): +495%
- Collagen I in the dermis Test 2 (dermal NHF; 4 ppm): +667%
- Collagen I in the dermis Test 2 (dermal NHF; 6 ppm): +557%

Structure (SMILES): CCCCCCCCCCCCCCCC(=O)N[C@@H](CCCCN)C(=O)NCCCCC(=O)N[C@@H](CCCCN)C(=O)O [Pal-K-Ava-K-OH, reference compound]
- Collagen I in the dermis Test 1 ([1]; 4 ppm): +116%
- Collagen I in the dermis Test 1 ([1]; 6 ppm): +175%

Structure (SMILES): CCCCCCCCCCCCCCCC(=O)N[C@@H](CCCCN)C(=O)NCCCCC(=O)N[C@@H](CCS(C)(=O)=O)C(=O)N[C@@H](CCCCN)C(=O)O [Pal-K-Ava-MO2-K-OH] (Palmitoyl-K[Ava][Met(O2)]K-OH)
- Collagen I in the dermis Test 1 ([1]; 2 ppm): +63%
- Collagen I in the dermis Test 1 ([1]; 4 ppm): +167%

Structure (SMILES): CCCCCCCCCCCCCCCC(=O)N[C@@H](CCCCN)C(=O)N[C@@H](Cc1ccccc1)C(=O)N[C@@H](CCS(C)(=O)=O)C(=O)N[C@@H](CCCCN)C(=O)O [Pal-K-F-MO2-K-OH] (Palmitoyl-KF[Met(O2)]K-OH)
- Collagen I in the dermis Test 1 ([1]; 4 ppm): +80%
- Collagen I in the dermis Test 1 ([1]; 6 ppm): +81%

Structure (SMILES): CCCCCCCCCCCCCCCC(=O)N[C@@H](CCCCN)C(=O)N[C@@H](CCS(C)(=O)=O)C(=O)NCCCCC(=O)N[C@@H](CCCCN)C(=O)O [Pal-K-MO2-Ava-K-OH] (Palmitoyl-K[Met(O2)][Ava]K-OH)
- Collagen I in the dermis Test 1 ([1]; 2 ppm): +75%

Structure (SMILES): CCCCCCCCCCCCCCCC(=O)N[C@@H](CCCCN)C(=O)N[C@@H](CCS(C)(=O)=O)C(=O)N[C@@H](Cc1ccccc1)C(=O)N[C@@H](CCCCN)C(=O)O [Pal-K-MO2-F-K-OH] (Palmitoyl-K[Met(O2)]FK-OH)
- Collagen I in the dermis Test 1 ([1]; 4 ppm): +91%

Structure (SMILES): CCCCCCCCCCCCCCCC(=O)N[C@@H](CCCCN)C(=O)N[C@@H](CCS(C)(=O)=O)C(=O)N[C@H](C(=O)N[C@@H](CCCCN)C(=O)O)[C@@H](C)O [Pal-K-MO2-T-K-OH] (Palmitoyl-K[Met(O2)]TK-OH)
- Collagen I in the dermis Test 2 (dermal NHF; 4 ppm): +192%
- Collagen I in the dermis Test 2 (dermal NHF; 6 ppm): +217%
- Collagen I in the dermis Test 1 ([1]; 4 ppm): +45%
- Collagen I in the dermis Test 1 ([1]; 6 ppm): +194%

Structure (SMILES): CCCCCCCCCCCCCCCC(=O)N[C@@H](CCCCN)C(=O)N[C@H](C(=O)N[C@@H](Cc1ccccc1)C(=O)N[C@@H](CCCCN)C(=O)O)[C@@H](C)O [Pal-K-T-F-K-OH, reference compound] (Palmitoyl-KTFK-OH)
- Collagen I in the dermis Test 1 ([1]; 4 ppm): +82%
- Collagen I in the dermis Test 1 ([1]; 6 ppm): +103%

Structure (SMILES): CCCCCCCCCCCCCCCC(=O)N[C@@H](CCCCN)C(=O)N[C@H](C(=O)N[C@@H](Cc1ccccc1)C(=O)N[C@@H](CCS(C)(=O)=O)C(N)=O)[C@@H](C)O [Pal-K-T-F-MO2-NH2] (Palmitoyl-KTF[Met(O2)]-NH2)
- Collagen I in the dermis Test 2 (dermal NHF; 2 ppm): +267%
- Collagen I in the dermis Test 2 (dermal NHF; 4 ppm): +420%
- Collagen I in the dermis Test 2 (dermal NHF; 6 ppm): +400%
- Collagen I in the dermis Test 1 ([1]; 4 ppm): +106%
- Collagen I in the dermis Test 1 ([1]; 6 ppm): +121%

Structure (SMILES): CCCCCCCCCCCCCCCC(=O)N[C@@H](CCCCN)C(=O)N[C@H](C(=O)N[C@@H](CCS(C)(=O)=O)C(=O)N[C@@H](CCCCN)C(=O)O)[C@@H](C)O [Pal-K-T-MO2-K-OH] (Palmitoyl-KT[Met(O2)]K-OH)
- Collagen I in the dermis Test 2 (dermal NHF; 2 ppm): +273%
- Collagen I in the dermis Test 2 (dermal NHF; 4 ppm): +341%
- Collagen I in the dermis Test 2 (dermal NHF; 6 ppm): +262%
- Collagen I in the dermis Test 1 ([1]; 4 ppm): +75%
- Collagen I in the dermis Test 1 ([1]; 6 ppm): +161%
